Results: ChEMBL document CHEMBL1201862, “PubChem BioAssay data set” (2004)
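Dose response: 5 concentrations. Exposure: 48 h. Format: 96-well plates. Endpoint: linear interpolation; highest concentration if not reached. GI50 is the concentration that inhibits growth by half.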 Active and inactive are the calls of the source. Rule as the data show it: active = GI50 up to about 1.1 µM and inactive = higher.

What was measured:
Test in all cases: NCI-60 cell line screen, 48 h
[1] = test system: TK-10
[2] = test system: HL-60
[3] = test system: Malme-3M
[4] = test system: SF-268
[5] = test system: OVCAR-5
[6] = test system: RXF 393
[7] = test system: HOP-62
[8] = test system: NCI-H460
[9] = test system: HCT-15
[10] = test system: A498
[11] = test system: Hs-578T
[12] = test system: BT-549
[13] = test system: UACC-62
[14] = test system: SK-MEL-28
[15] = test system: IGROV-1
[16] = test system: CCRF-CEM
[17] = test system: NCI/ADR-RES
[18] = test system: CAKI-1
[19] = test system: 786-0
[20] = test system: K562
[21] = test system: DU-145
[22] = test system: KM12
[23] = test system: SW-620
[24] = test system: COLO 205
[25] = test system: HCC 2998
[26] = test system: SNB-19
[27] = test system: PC-3
[28] = test system: A549
[29] = test system: NCI-H522
[30] = test system: ACHN
[31] = test system: RPMI-8226
[32] = test system: NCI-H23
[33] = test system: LOX IMVI
[34] = test system: OVCAR-4
[35] = test system: U-251
[36] = test system: T47D
[37] = test system: SF-295
[38] = test system: SR
[39] = test system: MDA-MB-435
[40] = test system: SF-539
[41] = test system: EKVX
[42] = test system: OVCAR-3
[43] = test system: SK-MEL-2
[44] = test system: MOLT-4
[45] = test system: NCI-H226
[46] = test system: SK-MEL-5
[47] = test system: OVCAR-8
[48] = test system: SN12C
[49] = test system: UACC-257
[50] = test system: MDA-N
[51] = test system: M14
[52] = test system: HCT-116
[53] = test system: SNB-75
[54] = test system: HT-29
[55] = test system: UO-31
[56] = test system: HOP-92
[57] = test system: MCF7
[58] = test system: MDA-MB-231
[59] = test system: SK-OV-3

COC(=O)c1ccccc1/C=C1\Cc2ccc(C)c(C)c2C1=O
GI50 [1]: > 100 µM (inactive)
GI50 [2]: > 100 µM (inactive)
GI50 [3]: > 100 µM (inactive)
GI50 [4]: 54.5 µM (inactive)
GI50 [5]: > 100 µM (inactive)
GI50 [6]: > 100 µM (inactive)
GI50 [7]: 59.8 µM (inactive)
GI50 [8]: > 100 µM (inactive)
GI50 [9]: > 100 µM
GI50 [10]: > 100 µM (inactive)
GI50 [11]: 92.9 µM (inactive)
GI50 [12]: > 100 µM (inactive)
GI50 [13]: > 100 µM (inactive)
GI50 [14]: > 100 µM (inactive)
GI50 [15]: > 100 µM (inactive)
GI50 [16]: > 100 µM (inactive)
GI50 [17]: > 100 µM (inactive)
GI50 [18]: > 100 µM (inactive)
GI50 [19]: 51.4 µM (inactive)
GI50 [20]: > 100 µM (inactive)
GI50 [21]: > 100 µM (inactive)
GI50 [22]: > 100 µM (inactive)
GI50 [23]: > 100 µM (inactive)
GI50 [24]: > 100 µM (inactive)
GI50 [25]: > 100 µM (inactive)
GI50 [26]: 44.5 µM (inactive)
GI50 [27]: > 100 µM (inactive)
GI50 [28]: > 100 µM (inactive)
GI50 [29]: 65.5 µM (inactive)
GI50 [30]: > 100 µM (inactive)
GI50 [31]: > 100 µM (inactive)
GI50 [32]: > 100 µM (inactive)
GI50 [33]: > 100 µM (inactive)
GI50 [34]: > 100 µM (inactive)
GI50 [35]: 48.6 µM (inactive)
GI50 [36]: > 100 µM (inactive)
GI50 [37]: 77.8 µM (inactive)
GI50 [38]: > 100 µM (inactive)
GI50 [39]: > 100 µM (inactive)
GI50 [40]: > 100 µM (inactive)
GI50 [41]: > 100 µM (inactive)
GI50 [42]: > 100 µM (inactive)
GI50 [43]: > 100 µM (inactive)
GI50 [44]: > 100 µM (inactive)
GI50 [45]: > 100 µM (inactive)
GI50 [46]: > 100 µM (inactive)
GI50 [47]: > 100 µM (inactive)
GI50 [48]: > 100 µM (inactive)
GI50 [49]: > 100 µM (inactive)
GI50 [50]: > 100 µM (inactive)
GI50 [51]: > 100 µM (inactive)
GI50 [52]: > 100 µM (inactive)
GI50 [53]: 35.4 µM (inactive)
GI50 [54]: > 100 µM (inactive)
GI50 [55]: > 100 µM (inactive)
GI50 [56]: 34.2 µM (inactive)
GI50 [57]: > 100 µM (inactive)

C=C(C)[C@@H]1CC[C@@H]2C(=CC[C@]3(C)C([C@H](C)CC/C=C(/C)C(=O)O)CC[C@@]23C)[C@@]1(C)CCC(=O)O (some centres not stated)
GI50 [1]: 36.6 µM (inactive)
GI50 [2]: 26.8 µM (inactive)
GI50 [3]: 25.5 µM (inactive)
GI50 [4]: 37.7 µM (inactive)
GI50 [5]: 30.5 µM (inactive)
GI50 [6]: 19.4 µM (inactive)
GI50 [7]: 52.8 µM (inactive)
GI50 [8]: 20.4 µM (inactive)
GI50 [9]: 21.3 µM
GI50 [10]: 33.3 µM (inactive)
GI50 [11]: 33.3 µM (inactive)
GI50 [12]: 21.6 µM (inactive)
GI50 [13]: 20.4 µM (inactive)
GI50 [14]: 27.9 µM (inactive)
GI50 [58]: 25.2 µM (inactive)
GI50 [15]: 28.2 µM (inactive)
GI50 [16]: 21.9 µM (inactive)
GI50 [18]: 23.8 µM (inactive)
GI50 [19]: 21.8 µM (inactive)
GI50 [20]: 33 µM (inactive)
GI50 [21]: 24.2 µM (inactive)
GI50 [22]: 23.4 µM (inactive)
GI50 [23]: 29 µM (inactive)
GI50 [24]: 22.6 µM (inactive)
GI50 [25]: 18.8 µM (inactive)
GI50 [26]: 34 µM (inactive)
GI50 [27]: 24.9 µM (inactive)
GI50 [28]: 36.8 µM (inactive)
GI50 [29]: 22.7 µM (inactive)
GI50 [30]: 19 µM (inactive)
GI50 [31]: 22.9 µM (inactive)
GI50 [32]: 24 µM (inactive)
GI50 [33]: 19.2 µM (inactive)
GI50 [34]: 36.6 µM (inactive)
GI50 [35]: 24.5 µM (inactive)
GI50 [36]: 45.8 µM (inactive)
GI50 [37]: 30.3 µM (inactive)
GI50 [38]: 21.3 µM (inactive)
GI50 [39]: 29.2 µM (inactive)
GI50 [40]: 30.4 µM (inactive)
GI50 [41]: 36.3 µM (inactive)
GI50 [42]: 19.9 µM (inactive)
GI50 [59]: 37.7 µM (inactive)
GI50 [43]: 20.2 µM (inactive)
GI50 [45]: 21.3 µM (inactive)
GI50 [46]: 16.9 µM (inactive)
GI50 [47]: 34.4 µM (inactive)
GI50 [48]: 33.4 µM (inactive)
GI50 [49]: 23.8 µM (inactive)
GI50 [50]: 28.3 µM (inactive)
GI50 [51]: 29.5 µM (inactive)
GI50 [52]: 22.3 µM (inactive)
GI50 [53]: 34.4 µM (inactive)
GI50 [54]: 21.7 µM (inactive)
GI50 [55]: 16.7 µM (inactive)
GI50 [56]: 19.2 µM (inactive)
GI50 [57]: 39.6 µM (inactive)

COc1ccc2c(c1OC)C[C@@H]1c3c(cc4c(c3-2)OCO4)CCN1C
GI50 [1]: 25 µM (inactive)
GI50 [2]: 8.63 µM (inactive)
GI50 [3]: 30.6 µM (inactive)
GI50 [4]: 37.1 µM (inactive)
GI50 [5]: 59 µM (inactive)
GI50 [6]: 20.5 µM (inactive)
GI50 [7]: 72.8 µM (inactive)
GI50 [8]: 32.1 µM (inactive)
GI50 [9]: 22.6 µM
GI50 [10]: 19.1 µM (inactive)
GI50 [11]: 34.4 µM (inactive)
GI50 [12]: 23.8 µM (inactive)
GI50 [13]: 15.2 µM (inactive)
GI50 [14]: 29.2 µM (inactive)
GI50 [58]: 33.7 µM (inactive)
GI50 [15]: 25.4 µM (inactive)
GI50 [16]: 20.3 µM (inactive)
GI50 [18]: 31.2 µM (inactive)
GI50 [19]: 24.2 µM (inactive)
GI50 [20]: 20.3 µM (inactive)
GI50 [21]: 41.1 µM (inactive)
GI50 [22]: 28.8 µM (inactive)
GI50 [23]: 29.8 µM (inactive)
GI50 [24]: 18.6 µM (inactive)
GI50 [25]: 21.3 µM (inactive)
GI50 [26]: 42.9 µM (inactive)
GI50 [27]: 17.5 µM (inactive)
GI50 [28]: 40.2 µM (inactive)
GI50 [29]: 19.9 µM (inactive)
GI50 [30]: 27.5 µM (inactive)
GI50 [31]: 18.5 µM (inactive)
GI50 [32]: 50.1 µM (inactive)
GI50 [33]: 15.3 µM (inactive)
GI50 [34]: 25.4 µM (inactive)
GI50 [35]: 26.9 µM (inactive)
GI50 [36]: 28.8 µM (inactive)
GI50 [37]: 15.6 µM (inactive)
GI50 [38]: 31.5 µM (inactive)
GI50 [39]: 27.5 µM (inactive)
GI50 [40]: 19 µM (inactive)
GI50 [41]: 20.7 µM (inactive)
GI50 [42]: 41.1 µM (inactive)
GI50 [59]: 23.3 µM (inactive)
GI50 [43]: 28.2 µM (inactive)
GI50 [44]: 24.3 µM (inactive)
GI50 [45]: 18.1 µM (inactive)
GI50 [46]: 16.7 µM (inactive)
GI50 [47]: 30.1 µM (inactive)
GI50 [48]: 42 µM (inactive)
GI50 [49]: 20 µM (inactive)
GI50 [50]: 44.1 µM (inactive)
GI50 [51]: 25.9 µM (inactive)
GI50 [52]: 20.7 µM (inactive)
GI50 [53]: 17.1 µM (inactive)
GI50 [54]: 15.8 µM (inactive)
GI50 [55]: 10.8 µM (inactive)
GI50 [56]: 12.3 µM (inactive)
GI50 [57]: 16.6 µM (inactive)
